Residues, ends and D or L forms follow the SMILES beside them.

What is called Kd is the constant that tells how readily two partners part at equilibrium.

Test [1] addresses HLA-DR0901 protein (Homo sapiens, UniProt P01903+P01911, A100R/A103E/D57H/D86V/F55Y/F60I/F76Y/I96F/K127E/L162R/M171V/P40D/Q125H/Q99R/R33Q/R42F/S133A/S66N/T210M/V115G/W38K/Y107V/Y59G/Y89S). Kind of test: Peptide binding competition assay, DR0901.
Test [2] addresses HLA-DRA1/B1*0901, soluble recombinant protein (human).

In turn, `CC[C@H](C)[C@H](NC(=O)[C@H](CCCCN)NC(=O)[C@H](CC(=O)O)NC(=O)[C@H](CC(C)C)NC(=O)[C@H](CO)NC(=O)[C@H](Cc1ccc(O)cc1)NC(=O)[C@H](CC(N)=O)NC(=O)[C@H](CC(C)C)NC(=O)[C@H](CC(N)=O)NC(=O)[C@@H](N)CC(C)C)C(=O)N[C@H](C(=O)N[C@H](C(=O)N[C@@H](CC(=O)O)C(=O)O)C(C)C)[C@@H](C)CC` [LNLNYSLDKIIVD] (H-LNLNYSLDKIIVD-OH) yielded a Kd in test [1] of 450 ± 80 nM.
The same measure, in the same setting: for `CC[C@H](C)[C@H](NC(=O)[C@H](CCCCN)NC(=O)[C@H](CC(=O)O)NC(=O)[C@H](CC(C)C)NC(=O)[C@H](CO)NC(=O)[C@H](Cc1ccc(O)cc1)NC(=O)[C@H](CC(N)=O)NC(=O)[C@H](CCSC)NC(=O)[C@H](CC(N)=O)NC(=O)[C@@H](N)CC(C)C)C(=O)N[C@H](C(=O)N[C@H](C(=O)N[C@@H](CC(=O)O)C(=O)O)C(C)C)[C@@H](C)CC` [LNMNYSLDKIIVD] (H-LNMNYSLDKIIVD-OH) the value was 600 ± 150 nM; for `CC[C@H](C)[C@H](NC(=O)[C@H](CCCCN)NC(=O)[C@H](CC(=O)O)NC(=O)[C@H](CC(C)C)NC(=O)[C@H](CO)NC(=O)[C@H](Cc1ccc(O)cc1)NC(=O)[C@H](CC(N)=O)NC(=O)[C@@H](NC(=O)[C@H](CC(N)=O)NC(=O)[C@@H](N)CC(C)C)C(C)C)C(=O)N[C@H](C(=O)N[C@H](C(=O)N[C@@H](CC(=O)O)C(=O)O)C(C)C)[C@@H](C)CC` [LNVNYSLDKIIVD] (H-LNVNYSLDKIIVD-OH), 440 ± 130 nM.
The same measure, in the same setting: for `CC[C@H](C)[C@H](NC(=O)[C@H](CCCCN)NC(=O)[C@H](CC(=O)O)NC(=O)[C@H](CC(C)C)NC(=O)[C@H](CO)NC(=O)[C@H](Cc1ccc(O)cc1)NC(=O)[C@H](CC(N)=O)NC(=O)[C@H](Cc1ccc(O)cc1)NC(=O)[C@H](CC(N)=O)NC(=O)[C@@H](N)CC(C)C)C(=O)N[C@H](C(=O)N[C@H](C(=O)N[C@@H](CC(=O)O)C(=O)O)C(C)C)[C@@H](C)CC` [LNYNYSLDKIIVD] (H-LNYNYSLDKIIVD-OH) the value was 113 ± 40 nM.
On to TT 503–515 peptide, unmodified, for which the dissociation constant (Kd) in test [2] came out at 73 nM.

(Values after paper PMC4061985 (Journal of immunology (Baltimore, Md. : 1950), 2009).)
